Test results reported in patent US8673882B2, “Inhibitors of autotaxin” (University of Tennessee Research Foundation, priority 2011, dated 2014).

Assays:
Type in all cases: biochemical
NPP6 = target: T1, NPP6 (Homo sapiens, UniProt Q6UWR7); test: NPP-6 inhibition assay (pNPPC substrate); conditions: 10 μM compound; 8.3 nM enzyme; 10 μM pNPPC; read-out: NPP6 Activity, % control (10 μM)
T1 sequence (Q6UWR7 23-419): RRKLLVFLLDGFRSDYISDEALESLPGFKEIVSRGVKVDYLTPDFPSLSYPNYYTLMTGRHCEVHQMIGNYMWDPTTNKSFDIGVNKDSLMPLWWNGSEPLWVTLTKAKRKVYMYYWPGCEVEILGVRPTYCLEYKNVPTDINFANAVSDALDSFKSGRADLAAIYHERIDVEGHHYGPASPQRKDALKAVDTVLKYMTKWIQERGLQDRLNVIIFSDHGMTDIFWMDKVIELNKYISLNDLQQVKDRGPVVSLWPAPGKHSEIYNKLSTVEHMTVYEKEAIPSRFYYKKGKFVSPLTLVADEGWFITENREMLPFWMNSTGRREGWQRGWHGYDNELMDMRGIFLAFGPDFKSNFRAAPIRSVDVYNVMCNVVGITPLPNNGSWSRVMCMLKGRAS
Description: (§1) NPP6 and NPP7 are the only NPP isoforms other than ATX that are known to utilize lysophospholipid phosphodiesters as substrates. Therefore, the specificity of the chemical compounds of the invention regarding ATX was addressed by determining the activity of NPP6 and NPP7 in the presence and absence of these analogs.
(§2) Inhibition of NPP6 and NPP7 was evaluated using recombinant, purified proteins, the synthetic substrate para-nitrophenylphosphocholine (pNPPC) and a Synergy II plate reader (BioTek, Winooski, Vt.). The final concentration of each enzyme was 8.3 nM and pNPPC was 10 μM. All analogs were tested at single 10 μM concentrations. Absorbance of liberated para-nitrophenol at 405 nm was determined up to 1 hour (where responses were linear) and was normalized to vehicle control.

recombinant human ATX = recombinant human ATX (Homo sapiens, UniProt Q13822); test: Autotaxin inhibition screening assay (FS-3 FRET substrate); conditions: 10 μM compound; 2 nM recombinant human ATX; 1 μM FS-3; 2 h, 37° C.; read-out: ATX Activity, % control (10 μM)
Description: A 10 μM concentration of the compound is added to 2 nM recombinant human ATX and the FRET (Fluorescence Resonance Energy Transfer) ATX substrate FS-3.
As the first level of screen, 50 μl of recombinant-ATX (2 nM in final concentration) in assay buffer [(Tris 50 mM, NaCl 140 mM, KCl 5 mM, CaCl2 1 mM, MgCl2 1 mM (pH 8.0)] was mixed with 25 μL of FS-3 (Echelon Biosciences, Inc., Salt lake city, Utah), final concentration 1 μM, and 25 μl of test compound was dissolved in assay buffer with 40 μM bovine serum albumin (Sigma, St. Louis, Mo.) in 96-well Costar black-well plate. FS-3 fluorescence at excitation and emission wavelengths of 485 and 538 nm, respectively, were monitored using a FLEXstation II (Molecular Devices, Sunnyvale, Calif.) for 2 h of incubation at 37° C. The differences between time 0 and 120 min were calculated individually and normalized to the vehicle control. The mean±SD of triplicate samples was expressed as percentage of ATX activity. The ATX activity in the presence of the test compounds was compared to vehicle using the […] p<0.05 was considered significant.
The first level of testing was done using 10 μM concentrations of the compounds shown in Tables 1 and 2 added to 2 nM recombinant human ATX and the FRET substrate FS-3. After a 2 h incubation the amount of FS3 hydrolyzed was measured and the residual ATX activity was expressed as a percent of the vehicle-treated sample less the autolysis of FS3 in the absence of ATX.

NPP7 = target: T2, NPP7 (Homo sapiens, UniProt Q6UWV6); test: NPP-7 inhibition assay (pNPPC substrate); conditions: 10 μM compound; 8.3 nM enzyme; 10 μM pNPPC; read-out: NPP7 Activity, % control (10 μM)
T2 sequence (Q6UWV6 22-458): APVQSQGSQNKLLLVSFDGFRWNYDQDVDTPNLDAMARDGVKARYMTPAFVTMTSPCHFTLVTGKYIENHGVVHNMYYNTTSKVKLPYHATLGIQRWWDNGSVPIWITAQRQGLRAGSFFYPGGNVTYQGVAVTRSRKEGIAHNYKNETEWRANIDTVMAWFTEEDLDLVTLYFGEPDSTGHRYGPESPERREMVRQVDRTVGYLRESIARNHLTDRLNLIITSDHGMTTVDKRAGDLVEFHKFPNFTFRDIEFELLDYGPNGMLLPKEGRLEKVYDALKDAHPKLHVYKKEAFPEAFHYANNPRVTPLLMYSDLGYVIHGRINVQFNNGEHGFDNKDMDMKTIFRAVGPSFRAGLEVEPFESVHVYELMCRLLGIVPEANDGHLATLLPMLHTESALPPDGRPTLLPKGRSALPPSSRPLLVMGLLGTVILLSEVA
Description: as §1, §2

[1] = target: recombinant, purified human ATX (Homo sapiens, UniProt Q13822); test: Mechanism of autotaxin inhibition (IC50, Ki, Ki′; FS-3 hydrolysis); conditions: for IC50: 8.3 nM ATX, 1 μM FS-3, 15 μM BSA; for ATX Mechanism of inhibition: FS-3 0.3 μM to 20 μM, inhibitor 0, 0.5× and 2× IC50
Description: The mechanism of inhibition of ATX was determined using recombinant, purified human ATX and FS-3. Final ATX and FS-3 concentrations were 8.3 nM and 1 μM, respectively and the assay buffer with 15 μM fatty acid tree BSA. To calculate IC50, full dose responses were determined for the test compounds. […] Simultaneous non-linear regression, using, WinNonLin® 6.1 (Pharsight, Mountain View, Calif.) was used to assign the mechanism of inhibition. Ki and Ki′ values (the affinity for free enzyme and enzyme substrate complex, respectively) were determined by calculating the lowest averaged percent residuals for each mechanism derived from curve fitting using the Michealis-Menten equations for competitive, uncompetitive, mixed-mode, and non-competitive inhibition.

[2] = affinity for enzyme substrate complex

Structure (SMILES)	remaining activity at 10 µM (NPP6) [%]	remaining activity at 10 µM (recombinant human ATX) [%]	remaining activity at 10 µM (NPP7) [%]	IC50 [1] [µM]	ATX Mechanism of inhibition [1]	Ki [1, 2] [µM]	Ki ([1]; affinity for free enzyme) [µM]
CCCCCCCCCCCCCCCCS(=O)(=O)Nc1ccc(CP(=O)(O)O)cc1 [Compound 4, 4-(Hexadecane-1-sulfonylamino)benzyl phosphonic acid]	102	24.1	93.5	–	–	–	–
CCCCCCCCCCCCCCOc1ccc(CP(=O)(O)O)cc1 [Compound 10, 4-(Tetradecyloxy)benzylphosphonic acid]	102	–	101	–	–	–	–
CCCCCCCCCCCCC/C=C/c1ccc(CP(=O)(O)O)cc1 [Compound 18, (E)-4-(Pentadec-1-enyl)benzylphosphonic acid]	104	18.8	97.7	–	–	–	–
CCCCCCCCCC/C=C/c1ccc2cc(CP(=O)(O)O)ccc2c1 [Compound 30a, (E)-6-Dodec-1-enyl-naphthalen-2-yl-methylphosphonic acid]	103	61.3	100	–	–	–	–
CCCCCCCCCCCCc1ccc2cc(CP(=O)(O)O)ccc2c1 [Compound 34a, 6-Dodecylnaphthalen-2-yl-methylphosphonic acid]	101	19.9	98.8	–	–	–	–
CCCCCCCCCCCCCc1ccc2cc(CP(=O)(O)O)ccc2c1 [Compound 34b, 6-Tridecylnaphthalen-2-yl-methylphosphonic acid]	100	50.8	94.7	–	–	–	–
CCCCCCCCCCCCCCCc1ccc(C(O)P(=O)(O)O)cc1 (stereo not shown) [Compound 37, Hydroxy-4-pentadecylphenylmethylphosphonic acid]	99.6	9.2	101	0.73	Mixed	0.7	0.45
CCCCCCCCCCCCCCCc1ccc(C(F)P(=O)(O)O)cc1 (stereo not shown) [Compound 41, Fluoro-4-pentadecylphenylmethyl phosphonic acid]	101	42.3	103	17.9	Mixed	5.54	4.97
CCCCCCCCCCCCCCCc1ccc(C(Cl)P(=O)(O)O)cc1 (stereo not shown) [Compound 42, Chloro-4-pentadecylphenylmethyl phosphonic acid]	101	118	99.9	–	–	–	–
CCCCCCCCCCCCCCCc1ccc(C(Br)P(=O)(O)O)cc1 (stereo not shown) [Compound 43, Bromo-4-pentadecylphenylmethyl phosphonic acid]	99.3	60.1	99.5	10.1	Mixed	2.97	6.1
CCCCCCCCCCCCCCCc1ccc(COP(=O)(O)O)cc1 [Compound 45, 4-pentadecylbenzyl dihydrogen phosphate]	101	85.2	98.8	–	–	–	–
CCCCCCCCCCCCCCCc1ccc(COP(O)(O)=S)cc1 [Compound 47, O-4-pentadecylbenzyl O,O-dihydrogen phosphorothioate]	98.8	–	92.9	1.54	Mixed	4.43	4.45
CCCCCCCCCCCCCC(=O)Nc1ccc(CP(=O)(O)O)cc1 [Compound S32826, 4-tetradecanoylaminobenzyl phosphonic acid, reference compound]	102	–	101	–	–	–	–
